Results from publication PMC6220849, “Mechanistic and structural studies of KDM‐catalysed demethylation of histone 1 isotype 4 at lysine 26” (Febs Letters, 2018).
Square brackets hold non-standard residues; d marks the D form. Ends that are not written are not given here. Lys(Me3) = C[N+](C)(C)CCCC[C@H](N)C(=O)O

Experiments:
Assay type in all cases: biochemical, human
KDM2A (KDM2A1–557) = assay: MALDI-TOF MS demethylation activity assay, KDM2A; parameters: key: 🟢: Indicates that clear demethylation activity was observed; 🟡: Indicates that low level demethylation activity was observed (<10% conversion after 1 h); 🔴: Indicates no activity under the stated conditions (1 μM KDM, 10 μM peptide); 🟡*: *Indicates demethylation activity was only observed with 5 μM KDM; conditions: peptide as substrate, 1 μM KDM, 10 μM peptide, 50 mM HEPES pH 7.5, Fe(II) 10 μM, ascorbate 100 μM, 2OG 200 μM, 1 h at 37 °C
Description: (§1) Recombinant proteins (1 μM) were incubated with peptides (10 μM, sequences are given in Table S1) in 50 mM HEPES, pH 7.5 with addition of Fe(II) ammonium sulfate (10 μM), sodium ascorbate (100 μM) and 2‐oxoglutaric acid (200 μM). Reactions with KDM3A and KDM7A also contained 1 mM tris(2‐carboxyethyl)phosphine hydrochloride. No enzyme reactions were included as negative controls. Reactions were incubated for 1 h at 37 °C before being quenched with 1 : 1 (v/v) methanol. Analysis was carried out by MALDI‐TOF MS (Bruker, Billerica, MA, USA), with demethylation observed as mass shifts of 14 Da.
(§2) The propensity of human JmjC KDMs to catalyse demethylation at H1.4K26 was investigated using recombinant forms of the catalytic domains of representatives of each human JmjC KDM subfamily (KDM2‐7) and fragment peptides (Table S1) 37. Three peptides with identical sequences, corresponding to residues 18–32 of histone H1.4 (H2N‐[…]‐CONH2), but containing either a N ^ε‐tri‐, di‐ or monomethyllysine at K26 were synthesised (Fig. 1B and Table S1). Activity assays monitoring JmjC KDM‐catalysed demethylation of the peptides were then carried out; samples were prepared containing each peptide, 2‐oxoglutarate (2OG), ferrous iron, ascorbate and individual representatives from each JmjC KDM subfamily (KDM2A 38, KDM3A 21, KDM4E 22, KDM5C 39, 40, KDM6B 41, KDM7A 42).

KDM5C (KDM5C1–765) = assay: MALDI-TOF MS demethylation activity assay, KDM5C; parameters: key: 🟢: Indicates that clear demethylation activity was observed; 🟡: Indicates that low level demethylation activity was observed (<10% conversion after 1 h); 🔴: Indicates no activity under the stated conditions (1 μM KDM, 10 μM peptide); 🟡*: *Indicates demethylation activity was only observed with 5 μM KDM; conditions: peptide as substrate, 1 μM KDM, 10 μM peptide, 50 mM HEPES pH 7.5, Fe(II) 10 μM, ascorbate 100 μM, 2OG 200 μM, 1 h at 37 °C
Description: as §1, §2

KDM7B (PHF8; KDM7B1–447) = assay: MALDI-TOF MS demethylation activity assay, KDM7B (PHF8); parameters: key to demethylation activity on methylated H1.4 peptide: 🟢: Indicates that clear demethylation activity was observed; 🟡: Indicates that low level demethylation activity was observed (<10% conversion after 1 h); 🔴: Indicates no activity under the stated conditions (1 μM KDM, 10 μM peptide); 🟡*: *Indicates demethylation activity was only observed with 5 μM KDM; conditions: peptide as substrate; MALDI-TOF MS; 1 μM KDM (* = only with 5 μM KDM), 10 μM peptide, 50 mM HEPES pH 7.5, Fe(II) 10 μM, ascorbate 100 μM, 2OG 200 μM, 1 h at 37 °C
Description: as §1
(§3) Given the activity observed with KDM4E and KDM7A, we decided to investigate the intra‐subfamily conservation of this demethylation activity. The demethylation activity of the other subfamily members (KDM4A‐D and KDM7B) was therefore screened. […] Note that as with H3K9, demethylation of the monomethylated H1.4K26 peptide was only observed with KDM4E, under the stated conditions 24.
N ^ε‐Trimethylated H3K4 binds to the plant homeobox domain of KDM7B, targeting the N ^ε‐dimethyllysine at H3K9 to the catalytic domain, and thus promoting demethylation 29, 44. To test whether similar targeting may occur with H1.4, promoting activity at H1.4K26, an H1.4 peptide was synthesised containing di‐N ^ε‐methyllysine at K26 and tri‐N ^ε‐methyllysine at K21 (i.e. at the equivalent position in the sequence to K4 in the H3 peptide, Fig. 1B, Table S1). Monomethylation at H1.4K21 has previously been observed by proteomic mass spectrometry 45. With the aim of enhancing activity, the enzyme concentration was increased from 1 μM to 5 μM, and time course analyses were conducted with both KDM7A and KDM7B, both with the new peptide (H1.4(18–32)K21me3K26me2) and the H1.4 peptides methylated only at K26 (Fig. 2B). […] Thus, it appears unlikely that N ^ε‐trimethylation at H1.4K21 promotes demethylation at H1.4K26 by KDM7B.

KDM4B (KDM4B1–359) = assay: MALDI-TOF MS demethylation activity assay, KDM4B; parameters: key: 🟢: Indicates that clear demethylation activity was observed; 🟡: Indicates that low level demethylation activity was observed (<10% conversion after 1 h); 🔴: Indicates no activity under the stated conditions (1 μM KDM, 10 μM peptide); 🟡*: *Indicates demethylation activity was only observed with 5 μM KDM; conditions: peptide as substrate, 1 μM KDM, 10 μM peptide, 50 mM HEPES pH 7.5, Fe(II) 10 μM, ascorbate 100 μM, 2OG 200 μM, 1 h at 37 °C
Description: as §1, §3

TPVKKKAR[Lys(Me3)]SAGAAK [H1.4(18–32)K26me3, peptide of residues 18–32 of histone H1.4 with N ε-trimethyllysine at K26]
demethylation activity on methylated H1.4 peptide (KDM2A (KDM2A1–557)): 🔴
demethylation activity on methylated H1.4 peptide (KDM5C (KDM5C1–765)): 🔴
demethylation activity on methylated H1.4 peptide (KDM7B (PHF8; KDM7B1–447)): 🔴
demethylation activity on methylated H1.4 peptide (KDM4B (KDM4B1–359)): 🟢
